Measurements published in US20070190129A1, “Sustained release dosage forms of ziprasidone” (Pfizer Inc., priority 2003, published 2007).
≈ marks a conversion by molar mass, not a printed value. Where a name gives a salt, the structure may show the parent alone. Read-outs that look alike come from different tables or passages of the source.

Tests used:
[1] = Microcentrifuge dissolution test in MFD solution; type: physicochemical; parameters: AUC: concentration or dose not given beside the values; conditions: for AUC / Dissolved Ziprasidone Concentration: MFD solution pH 6.5, 37° C.; for Dissolved Ziprasidone Concentration: 200 μgA/mL if all dissolved
Description: The tests were run in duplicate. The tubes were placed in a 37° C. temperature-controlled chamber, and 1.8 mL MFD solution at pH 6.5 and 290 mOsm/kg was added to each respective tube. The samples were quickly mixed using a vortex mixer for about 60 seconds. The samples were centrifuged at 13,000 G at 37° C. for 1 minute prior to collecting a sample. The resulting supernatant solution was then sampled and diluted 1:5 (by volume) with methanol. Samples were analyzed by high-performance liquid chromatography (HPLC) at a UV absorbance of 315 nm using a Zorbax RxC8 Reliance column and a mobile phase consisting of 55% (50 mM potassium dihydrogen phosphate, pH 6.5)/45% acetonitrile. Drug concentration was calculated by comparing UV absorbance of samples to the absorbance of drug standards. The contents of each tube were mixed on the vortex mixer and allowed to stand undisturbed at 37° C. until the next sample was taken. Samples were collected at 4, 10, 20, 40, 90, and 1200 minutes following administration to the MFD solution.
A similar test was performed with the crystalline ziprasidone free base as a control, and a sufficient amount of material was added so that the concentration of compound would have been 200 μgA/mL, if all of the ziprasidone had dissolved.
The concentration of ziprasidone obtained in these tests were used to determine the maximum dissolved concentration of ziprasidone (“MDC90”) and the area under the concentration-versus time (“AUC90”) during the initial ninety minutes.

physchem = experiment: physchem
Description: To achieve efficacious blood levels over long periods of time, the sustained release dosage form should release ziprasidone to the gastrointestinal tract in a manner that allows ziprasidone to be absorbed for a sustained length of time. However, formulating ziprasidone into a sustained release dosage form presents a number of problems. […] Such low solubility at intestinal pH inhibits absorption of ziprasidone in the intestines.
In one embodiment, the solubility-improved form of ziprasidone is a high solubility salt form. It is known that some low-solubility drugs may be formulated in highly soluble salt forms that provide temporary improvements in the concentration of the drug in a use environment relative to another salt form of the drug.

[2] = In vitro membrane permeation test; type: physicochemical; conditions: for Concentration (permeate solution): feed MFD solution, 100 μgA/mL if all dissolved, 37° C.
Description: The ziprasidone coated crystals were evaluated in vitro using a membrane permeation test. An Accurel® PP 1E microporous polypropylene membrane was obtained from Membrana GmbH (Wuppertal, Germany). The membrane was washed in isopropyl alcohol and rinsed in methanol in a sonicating bath for 1 minute at ambient temperature, and then allowed to air dry at ambient temperature. The feed side of the membrane was then plasma-treated to render it hydrophilic by placing a sample of the membrane in a plasma chamber. The atmosphere of the plasma chamber was saturated with water vapor at a pressure of 550 mtorr. A plasma was then generated using radio frequency (RF) power inductively coupled into the chamber via annular electrodes at a power setting of 50 watts for 45 seconds. The contact angle of a drop of water placed on the surface of the plasma-treated membrane was about 40°. The contact angle of a drop of water placed on the permeate side of the same membrane was greater than about 110°.
A permeate reservoir was formed by gluing a sample of the plasma-treated membrane to a glass tube having an inside diameter of about 1 inch (2.54 cm) using an epoxy-based glue (LOCTITE® E-30CL HYSOL®) from Henkel Loctite Corp, Rocky Hill, Conn.). The feed-side of the membrane was oriented so that it was on the outside of the permeate reservoir, while the permeate-side of the membrane was oriented so that it was on the inside of the reservoir. The effective membrane area of the membrane on the permeate reservoir was about 4.9 cm^2. The permeate reservoir was placed into a glass feed reservoir. The feed reservoir was equipped with a magnetic stir bar and the reservoir was placed on a stir plate and the stir rate was set to 100 rpm during the test. The apparatus was placed into a chamber maintained at 37° C. for the duration of the test. Further details of the test apparatus and protocols are presented in co-pending U.S. patent application Ser. No. 60/557,897, entitled “Method and Device for Evaluation of Pharmaceutical Compositions,” filed Mar. 30, 2004 (attorney Docket No. PC25968), incorporated herein by reference.
To form the feed solution, a 1.39 mg sample of the coated crystals was weighed into the feed reservoir. To this was added 5 mL of MFD solution previously described, consisting of PBS solution containing 7.3 mM sodium taurocholic acid and 1.4 mM of 1-palmitoyl-2-oleyl-sn-glycero-3-phospocholine (0.5% NaTC/POPC). The concentration of ziprasidone in the feed solution, would have been 100 μgA/mL, if all of the ziprasidone had dissolved. The feed solution was mixed using a vortex mixer for 1 minute. Before the membrane contacted the feed solution, 5 mL of 60 wt% decenol in decane was placed into the permeate reservoir. Time zero in the test was the membrane was placed in contact with the feed solution. A […] aliquot of the permeate solution was collected at the times indicated. Samples were then diluted in […] IPA and analyzed using HPLC.
As a control, the membrane test was repeated using a 0.5-mg sample of crystalline ziprasidone alone, so that the concentration of drug would have been 100 μg/mL, if all of the drug had dissolved.
The maximum flux of drug across the membrane (in units of mgA/cm^2-min) was determined by performing a least-squares fit to the data in Table 3 from 0 to 60 minutes to obtain the slope, multiplying the slope by the permeate volume (5 mL), and dividing by the membrane area (4.9 cm^2).

[3] = with food versus without; cited from earlier work
D2 receptor = D2 receptor (Homo sapiens, UniProt P14416); conditions: cited from earlier work
Sequence of D2 receptor (P14416 whole entry): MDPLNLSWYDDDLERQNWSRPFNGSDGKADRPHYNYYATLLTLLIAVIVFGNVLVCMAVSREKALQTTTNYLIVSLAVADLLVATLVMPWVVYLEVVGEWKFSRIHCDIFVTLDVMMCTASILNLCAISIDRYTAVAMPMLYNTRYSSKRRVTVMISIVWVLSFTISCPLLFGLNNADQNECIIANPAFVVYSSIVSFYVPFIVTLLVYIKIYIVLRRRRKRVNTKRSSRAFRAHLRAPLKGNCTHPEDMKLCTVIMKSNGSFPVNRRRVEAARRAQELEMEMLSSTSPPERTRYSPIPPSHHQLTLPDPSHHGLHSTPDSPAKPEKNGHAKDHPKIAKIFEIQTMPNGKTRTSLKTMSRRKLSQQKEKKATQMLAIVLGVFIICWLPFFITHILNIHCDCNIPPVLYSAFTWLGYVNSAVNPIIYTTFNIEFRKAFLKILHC

[4] = initial ninety minutes, MFD solution pH 6.5
[5] = at the pH of the saturated solution

For ziprasidone mesylate trihydrate, the AUC ([1]; 0 min) was 0 min-μgA/mL, the “Dissolved Ziprasidone Concentration” value ([1]; 0 min) was 0 μgA/mL and the AUC ([1]; 4 min) was 110 min-μgA/mL. For the same compound, the “Dissolved Ziprasidone Concentration” value ([1]; 4 min) was 55 μgA/mL, the AUC ([1]; 10 min) was 380 min-μgA/mL and the “Dissolved Ziprasidone Concentration” value ([1]; 10 min) was 33 μgA/mL. The AUC ([1]; 20 min) was 640 min-μgA/mL, the “Dissolved Ziprasidone Concentration” value ([1]; 20 min) was 20 μgA/mL and the AUC ([1]; 40 min) was 970 min-μgA/mL. The “Dissolved Ziprasidone Concentration” value ([1]; 40 min) was 13 μgA/mL, the AUC ([1]; 90 min) was 1,600 min-μgA/mL and the “Dissolved Ziprasidone Concentration” value ([1]; 90 min) was 11 μgA/mL. For the same compound, the AUC ([1]; 1200 min) was 11,200 min-μgA/mL, the “Dissolved Ziprasidone Concentration” value ([1]; 1200 min) was 6 μgA/mL and the “AUC90 relative to that provided by the free base” value ([1]; MFD solution pH 6.5) was 13 fold. The “MDC90 relative to that provided by the free base” value ([1]; MFD solution pH 6.5) was 27 fold, the “AUC90 (area under the concentration-versus time)” value [1, 4] was 1,600 min*μgA/mL and the “MDC90 (maximum dissolved concentration of ziprasidone)” value [1, 4] was 55 μgA/mL.

With Maleate the “Aqueous Solubility” value (physchem) was 118 µg/mL and the “pH of Saturated Solution” value (physchem) was 4.3.

For `O=C1Cc2cc(CCN3CCN(c4nsc5ccccc45)CC3)c(Cl)cc2N1` [Ziprasidone hydrochloride monohydrate, ziprasidone hydrochloride monohydrate], the “AUC90 (area under the concentration-versus time)” value ([1]; initial ninety minutes, MFD solution pH 6.5, hydrochloride monohydrate) was 1,700 min*μgA/mL and the “MDC90 (maximum dissolved concentration of ziprasidone)” value ([1]; pH 6.5) was 22 μgA/mL.

In the case of `Cl.O=C1Cc2cc(CCN3CCN(c4nsc5ccccc45)CC3)c(Cl)cc2N1` [Crystalline Ziprasidone HCl], the “Concentration (permeate solution)” value ([2]; 0 min) is reported as 0.0 μgA/mL, the “Concentration (permeate solution)” value ([2]; 20 min) is reported as 5.2 μgA/mL and the “Concentration (permeate solution)” value ([2]; 40 min) is reported as 8.1 μgA/mL. For the same compound, the “Concentration (permeate solution)” value ([2]; 60 min) was 10.0 μgA/mL, the “Concentration (permeate solution)” value ([2]; 90 min) was 11.4 μgA/mL and the “Concentration (permeate solution)” value ([2]; 120 min) was 12.9 μgA/mL. The “Concentration (permeate solution)” value ([2]; 180 min) was 18.1 μgA/mL, the “Concentration (permeate solution)” value ([2]; 245 min) was 20.9 μgA/mL and the “Concentration (permeate solution)” value ([2]; 360 min) was 22.6 μgA/mL. It also gave a Maximum flux of Ziprasidone ([2]; least-squares fit 0 to 60 minutes, permeate volume 5 mL, membrane area 4.9 cm^2) of 0.16 µgA/cm²·min.

With Phosphate the “pH of Saturated Solution” value (physchem) was 2.3 and the “Aqueous Solubility” value (physchem; [5]) was 37 µg/mL.

In the case of `O=C1Cc2cc(CCN3CCN(c4nsc5ccccc45)CC3)c(Cl)cc2N1` [ziprasidone, 5-[2-[4-(1,2-benzisothiazol-3-yl)-1-piperazinyl]ethyl]-6-chloro-1,2-dihydro-2H-indol-2-one], the “AUC90 (area under the concentration-versus time)” value ([1]; initial ninety minutes, MFD solution pH 6.5, listed as Ziprasidone free base) is listed as 120 min*μgA/mL, the “MDC90 (maximum dissolved concentration of ziprasidone)” value ([1]; pH 6.5) is listed as 2 μgA/mL and the “absorption in the presence of food” value [3] is listed as “increased up to two-fold”. The “pH of Saturated Solution” value (physchem) was 9.8, the solubility (physchem; pH 6.5, aqueous buffer) was roughly 0.2 µg/mL (≈ 0.484 µM) and the solubility (physchem; pH 9.8, water) was 0.2 µg/mL (≈ 0.484 µM). The D2 occupancy (D2 receptor; blood ziprasidone concentration 16 ng/ml) was “approximately 50%”, the D2 occupancy (D2 receptor; blood ziprasidone concentration 30 ng/ml) was “approximately 65%” and the D2 occupancy (D2 receptor; blood ziprasidone concentration 50 ng/ml) was “approximately 75%”.

For `O=C(O)c1ccccc1O` [Salicylate], the “Aqueous Solubility” value (physchem) was 58 µg/mL and the “pH of Saturated Solution” value (physchem) was 5.5.

For Fumarate, the “Aqueous Solubility” value (physchem) was 2000 µg/mL and the “pH of Saturated Solution” value (physchem) was 2.5.

For Tosylate, the “pH of Saturated Solution” value (physchem) was 6.0 and the “Aqueous Solubility” value (physchem; [5]) was 64 µg/mL.
